In US20240293326A1, “CONTROLLED RELEASE FORMULATIONS FOR THE TREATMENT OF MALARIA” (KARICI DIAGNOSTICS INC., priority 2018, published 2024):

Columns and labels:
[1] = In vitro Arte and Pf interaction / stability in SGF (FTIR, NMR, antioxidant capacity); format: physicochemical; conditions: SGF pH 1.5, 37° C., 2 h, one agent in the presence of the other
Procedure: Since both bioactive agents, Art and Pf will be used in a combination therapy in the same dosage form, there is a risk of molecular interactions to be considered. […] These interactions could also cause a moderate loss of activity due to the partial degradation of the endoperoxide bridge of artemisinin. […] After incubation, Arte was separated from Pf by decantation, washed and dried before FTIR and RMN analyses; whereas the Pf solution (in presence or not of Arte) was filtered and the antioxidant capacity was evaluated as previously described in the section of antioxidant properties. In vitro interaction of Arte with CMC-Pf was evaluated in SGF. Arte and CMC-Pf were incubated in SGF (pH 1.5, at 37° C.) separately or one in the presence of each other (FIG. 31).

[2] = Dissolution assay of tablets (release kinetics, SGF 2 h then SIF); format: physicochemical
Procedure: Dissolution assays of formulated monolithic tablets were done in simulated gastric fluid (SGF, pH 1.5) for 2 h and continued in simulated intestinal fluid (SIF, pH 6.8) as referred by USP method 40 (USP, 2017a).
The Pf (Pf, MD/Pf or CMS-Pf) release kinetics from different formulations (Pf, MD/Pf and CMS-Pf monolithic tablet dosage form) were recorded at 100 rpm and 37° C. using a Distek dissolution system 2100A (Betatek Inc., Markham, ON, Canada). At predetermined intervals, an established volume of samples (1 mL) was withdrawn from dissolution media, filtered (0.45 μm) and the released Pf was quantified by UV measurement at 280 nm.
CMS-Pf complexes were prepared as detailed above in Example 1. Briefly, CMS was dispersed at 8.5% in water. After homogenization and obtaining a homogenous suspension, an amount of 50 mL of CMS suspension was slowly added in 450 ml of Pf 21.5% previously dissolved in ethanol (60%). Similar operation was carried out for the CMS and for CMC (high viscosity) with a degree of substitution of 0.8. The final ratio Pf/carboxyl polymer (w/w) was respectively about of 96/4. The solutions were maintained under agitation at room temperature until spray-drying to obtain powders using the following parameters: 1) inlet temperature 150° C.; 2) outlet temperature 100° C.; 3) spray flow 500 L/h, and 4) aspirator setting at 38 m^3/h. During the drying process, the polymeric excipient/Pf suspension was continuously gently stirred to prevent sedimentation. The resulting powder was used to prepare monolithic tablets (12.5 mm diameter, 3.0 mm thickness) containing 400 mg of Pf by direct compaction. The kinetics of the drug release were recorded using the Distek™ dissolution (100 rpm) and the detection of Pf was monitored at 280 nm, first in a dissolution medium made of 1 L of SGF (pH 1.5) during 2 h. Then, the tablets were transferred in 1 L of SIF (pH 7.2) at 37° C.) (USP 32 method).
For each tablet, the dissolution was started in 1 L of SGF (pH 1.5) for 2h and followed in 1 L of SIF (pH 7.2) at 37° C., according to USP 32. The drug release kinetics were recorded using a Distek™ dissolution 2100A paddle system at 100 rpm.
The quantification of Pf was carried out at 280 nm, whereas the dosage of artemisinin was realized by spectrophotometry at 734 nm after filtration and dissolving artemisinin in the acetone/water (ratio 40:60) solvent containing ABTS (2,2′-azino-bis[3-ethylbenzothiazoline-6-sulphonate]).
Dissolution assay was done first in simulated gastric fluid (SGF, pH 1.5) for 2 h and then in simulated intestinal fluid (SIF, pH 6.8) as referred by USP method 40 (2017a). Release kinetics from different formulations were followed at 100 rpm and 37° C. using a Distek dissolution system 2100A (Betatek Inc., Markham, ON, Canada) with a Distek TCS 0200 (North Brunswick, NJ, USA). At predetermined intervals (0.5, 1, 2, 4, 6, 8 and10 h), released Pf and Arte were quantified using the appropriate method (described above).
For Pf dosage, a volume (5 mL) was withdrawn from dissolution media, properly filtered (0.45 μm) and diluted before absorbance measurement at 280 nm. To quantify released Arte, the insoluble precipitate was recuperated, washed several times to remove all Pf residues and quantified as previously described.
Dissolution assays was followed for each tablet first in simulated gastric fluid (SGF, pH 1.5) for 2 h and then continued in simulated intestinal fluid (SIF, pH 6.8) as referred by USP method 40 (USP, 2017c). Release kinetics from both formulation types (containing CMP-Pf or pCMC-Pf) were followed using a Distek dissolution system 2100A (Betatek Inc., Markham, ON, Canada) with a Distek TCS 0200 (North Brunswick, NJ, USA) at 100 rpm and 37° C. At predetermined intervals (0.5, 1, 2, 4, 6, 8, 10 and 12 h), released Pf and Arte from tablets were quantified by absorbancy at 280 nm (for Pf) and at 734 nm (for Arte, using ABTS•+ radical as probe reagent). […]

[3] = monolithic tablets with CMC-Pf or pCMC-Pf, Example 6

## C[C@@H]1CC[C@H]2[C@@H](C)C(=O)O[C@@H]3O[C@@]4(C)CC[C@@H]1[C@]32OO4 [Artemisinin]
[1]; listed as Arte
  Degradation in SGF (FTIR, 1H NMR): No degradation
[1]; listed as artemisinin
  Degradation in SGF (FTIR, 1H NMR): no degradation
[2]; bi-layer tablet, Artemisinin 100 mg + Explotab layer, Example 3
  Time to completed release of Artemisinin: 60 min
[2]; monolithic tablet, 400 mg CMC/Pf + 100 mg artemisinin, Example 4
  Art released after 2 h in SGF: about 45%
[2]; monolithic tablet, in SIF, Example 5
  Time to complete release of Arte: 8 h
[2]; monolithic tablet, Example 4
  Time to complete release of Art: 8 h
[2]; monolithic tablet, Example 5
  Arte released after 2 h in SGF: about 51%
[2]; [3]
  Arte released after 2 h in SGF: about 51%
  Time to complete release of Arte: 8 h
